Results from US20140024638A1, “TREATMENT OF COGNITIVE DYSFUNCTION IN SCHIZOPHRENIA” (TARGACEPT, INC., priority 2011, published 2014).

Key:
Type in all cases: in vivo, human
[1] = system: patients with schizophrenia; assay: Groton Maze Learning Task (GMLT) of the CogState Schizophrenia Battery, Phase 2 trial; settings: for GML (Total Error) LOG: Adjusted Mean / GML (Total Error) LOG: Mean Difference ± SE between TC-5619 and Placebo (Placebo-TC5619): All Patients; for GMLT primary efficacy outcome measure: result against protocol criteria: positive outcome = superiority over placebo, one-sided p-value <0.10 after adjusting for 3 comparisons (Weeks 4, 8, 12), adjusted p-value=0.054, unadjusted p 0.018 at 4 weeks, 0.041 at 12 weeks; for GMLT log (10) transformed: Mean (SE): tobacco users
Procedure: (§1) The double blind, placebo controlled Phase 2 trial was conducted at 7 sites in the United States and 12 sites in India. […] Of the randomized patients, approximately 69% were male and approximately 46% were users of tobacco products. […] The primary efficacy outcome measure was GMLT, and the trial included a number of other scales as secondary efficacy outcome measures.
The GMLT is a computerized test designed to assess executive function (the ability to organize cognitive processes, including the ability to plan, prioritize, stop and start activities, shift from one activity to another activity and to monitor one's own behavior). Impaired executive function is thought to be an important aspect of cognitive dysfunction in schizophrenia.

[2] = system: patients with schizophrenia; assay: Clinical Global Impression - Global Improvement (CGI-I, CGI Global Change), Phase 2 trial; settings: for CGI Global Change: Adjusted Mean / CGI Global Change: Mean Difference ± SE between TC-5619 and Placebo (Placebo-TC5619): All Patients; for CGI-I: Mean (SE): tobacco users; for CGI-I: Mean (SEM): total population
Procedure: as §1

[3] = system: patients with schizophrenia; assay: Subject Global Impression - Cognition scale (SGI-Cog), Phase 2 trial; settings: for SGI-COGNITION TOTAL BY PATIENT: Adjusted Mean / SGI-COGNITION TOTAL BY PATIENT: Mean Difference ± SE between TC-5619 and Placebo (Placebo-TC5619): All Patients; for SGI-Cog: Mean (SE): tobacco users; for SGI-Cog: Mean (SEM): total population
Procedure: as §1

[4] = system: patients with schizophrenia; assay: Clinical Global Impression - Severity (CGI-S), Phase 2 trial; settings: All Patients
Procedure: as §1

## O=C(N[C@@H]1C2CCN(CC2)[C@H]1Cc1cccnc1)c1cc2ccccc2o1 (single isomer, unassigned) [TC-5619]
[1]; Week 1, 1 mg daily, SE 0.01, placebo −0.02
  GML (Total Error) LOG: Adjusted Mean: −0.01
[1]; Week 1, 1 mg daily, one-sided 90% CI (−0.03, ∞), one-sided P 0.6709
  GML (Total Error) LOG: Mean Difference ± SE between TC-5619 and Placebo (Placebo-TC5619): −0.01 ± 0.02
[1]; Week 4, 1 mg daily, SE 0.02, placebo 0.02
  GML (Total Error) LOG: Adjusted Mean: −0.03
[1]; Week 4, 1 mg daily, one-sided 90% CI (0.02, ∞), one-sided P 0.0180
  GML (Total Error) LOG: Mean Difference ± SE between TC-5619 and Placebo (Placebo-TC5619): 0.05 ± 0.02
[1]; Week 8, 5 mg daily, SE 0.02, placebo −0.02
  GML (Total Error) LOG: Adjusted Mean: −0.05
[1]; Week 8, 5 mg daily, one-sided 90% CI (−0.00, ∞), one-sided P 0.1308
  GML (Total Error) LOG: Mean Difference ± SE between TC-5619 and Placebo (Placebo-TC5619): 0.02 ± 0.02
[1]; Week 12, 25 mg daily, SE 0.02, placebo −0.02
  GML (Total Error) LOG: Adjusted Mean: −0.06
[1]; Week 12, 25 mg daily, one-sided 90% CI (0.01, ∞), one-sided P 0.0405
  GML (Total Error) LOG: Mean Difference ± SE between TC-5619 and Placebo (Placebo-TC5619): 0.04 ± 0.02
[1]; non-users
  GMLT activity in non-users of tobacco: no activity
[1]
  GMLT primary efficacy outcome measure: result against protocol criteria: met the pre-defined success criteria
[1]; listed as (2S,3R)—N-(2-((3-pyridinyl)methyl)-1-azabicyclo[2.2.2]oct-3-yl)benzofuran-2-carb
  GMLT primary efficacy outcome measure: result against protocol criteria: met the protocol criteria for a positive result
[1]; subgroup comparison
  GMLT results, patients at study sites in United States as compared to study sites in India: favorable
  GMLT results, tobacco users as compared to non-users: favorable for tobacco users as compared to non-users
[1]; Week 4, 1 mg daily, 1-tailed p = 0.014
  GMLT log (10) transformed: Mean (SE): 0.06 (.03) p = 0.014
[1]; Week 8, 5 mg daily, 1-tailed p = 0.086
  GMLT log (10) transformed: Mean (SE): 0.04 (0.03) p = 0.086
[1]; Week 12, 25 mg daily, 1-tailed p = 0.002
  GMLT log (10) transformed: Mean (SE): 0.07 (0.02) p = 0.002
[1]; total population (tobacco users and non-users), Week 4, 1 mg daily, 1-tailed p = 0.018
  GMLT log (10) transformed: Mean (SEM): 0.05 (0.02); p = 0.018
[1]; total population, Week 8, 5 mg daily, 1-tailed p = 0.131
  GMLT log (10) transformed: Mean (SEM): 0.02 (0.02); p = 0.131
[1]; total population, Week 12, 25 mg daily, 1-tailed p = 0.041
  GMLT log (10) transformed: Mean (SEM): 0.04 (0.02); p = 0.041
[2]; Week 1, 1 mg daily, SE 0.15, placebo 3.80
  CGI Global Change: Adjusted Mean: 3.77
[2]; Week 1, 1 mg daily, one-sided 90% CI (−0.06, ∞), one-sided P 0.3434
  CGI Global Change: Mean Difference ± SE between TC-5619 and Placebo (Placebo-TC5619): 0.03 ± 0.07
[2]; Week 4, 1 mg daily, SE 0.16, placebo 3.64
  CGI Global Change: Adjusted Mean: 3.49
[2]; Week 4, 1 mg daily, one-sided 90% CI (0.04, ∞), one-sided P 0.0485
  CGI Global Change: Mean Difference ± SE between TC-5619 and Placebo (Placebo-TC5619): 0.15 ± 0.09
[2]; Week 8, 5 mg daily, SE 0.16, placebo 3.30
  CGI Global Change: Adjusted Mean: 3.22
[2]; Week 8, 5 mg daily, one-sided 90% CI (−0.07, ∞), one-sided P 0.2533
  CGI Global Change: Mean Difference ± SE between TC-5619 and Placebo (Placebo-TC5619): 0.08 ± 0.12
[2]; Week 12, 25 mg daily, SE 0.17, placebo 3.18
  CGI Global Change: Adjusted Mean: 3.03
[2]; Week 12, 25 mg daily, one-sided 90% CI (−0.03, ∞), one-sided P 0.1502
  CGI Global Change: Mean Difference ± SE between TC-5619 and Placebo (Placebo-TC5619): 0.15 ± 0.14
[2]; secondary outcome measure, investigator assessment of overall response
  Clinical Global Impression - Global Improvement, result in words: encouraging efficacy signals
[2]; Week 4, 1 mg daily, 1-tailed p = 0.047
  CGI-I: Mean (SE): 0.25 (0.14); p = 0.047
[2]; Week 8, 5 mg daily, 1-tailed p = 0.075
  CGI-I: Mean (SE): 0.24 (0.16); p = 0.075
[2]; Week 12, 25 mg daily, 1-tailed p = 0.189
  CGI-I: Mean (SE): 0.18 (0.20); p = 0.189
[2]; Week 4, 1 mg daily, 1-tailed p = 0.049
  CGI-I: Mean (SEM): 0.15 (0.09); p = 0.049
[2]; Week 8, 5 mg daily, 1-tailed p = 0.253
  CGI-I: Mean (SEM): 0.08 (0.12); p = 0.253
[2]; Week 12, 25 mg daily, 1-tailed p = 0.150
  CGI-I: Mean (SEM): 0.15 (0.14); p = 0.150
[3]; Week 1, 1 mg daily, SE 0.19, placebo 11.37
  SGI-COGNITION TOTAL BY PATIENT: Adjusted Mean: 11.18
[3]; Week 1, 1 mg daily, one-sided 90% CI (−0.07, ∞), one-sided P 0.1757
  SGI-COGNITION TOTAL BY PATIENT: Mean Difference ± SE between TC-5619 and Placebo (Placebo-TC5619): 0.19 ± 0.20
[3]; Week 4, 1 mg daily, SE 0.24, placebo 10.65
  SGI-COGNITION TOTAL BY PATIENT: Adjusted Mean: 10.60
[3]; Week 4, 1 mg daily, one-sided 90% CI (−0.31, ∞), one-sided P 0.4282
  SGI-COGNITION TOTAL BY PATIENT: Mean Difference ± SE between TC-5619 and Placebo (Placebo-TC5619): 0.05 ± 0.28
[3]; Week 8, 5 mg daily, SE 0.29, placebo 9.80
  SGI-COGNITION TOTAL BY PATIENT: Adjusted Mean: 9.79
[3]; Week 8, 5 mg daily, one-sided 90% CI (−0.45, ∞), one-sided P 0.4914
  SGI-COGNITION TOTAL BY PATIENT: Mean Difference ± SE between TC-5619 and Placebo (Placebo-TC5619): 0.01 ± 0.36
[3]; Week 12, 25 mg daily, SE 0.31, placebo 9.61
  SGI-COGNITION TOTAL BY PATIENT: Adjusted Mean: 8.95
[3]; Week 12, 25 mg daily, one-sided 90% CI (−0.16, ∞), one-sided P 0.0455
  SGI-COGNITION TOTAL BY PATIENT: Mean Difference ± SE between TC-5619 and Placebo (Placebo-TC5619): 0.66 ± 0.39
[3]; secondary outcome measure, patient self-assessment of cognitive change
  Subject Global Impression - Cognition scale, result in words: encouraging efficacy signals
[3]; Week 4, 1 mg daily, 1-tailed p = 0.606
  SGI-Cog: Mean (SE): −0.13 (0.47); p = 0.606
[3]; Week 8, 5 mg daily, 1-tailed p = 0.314
  SGI-Cog: Mean (SE): 0.24 (0.49); p = 0.314
[3]; Week 12, 25 mg daily, 1-tailed p = 0.109
  SGI-Cog: Mean (SE): 0.65 (0.52); p = 0.109
[3]; Week 4, 1 mg daily, 1-tailed p = 0.428
  SGI-Cog: Mean (SEM): 0.05 (0.28); p = 0.428
[3]; Week 8, 5 mg daily, 1-tailed p = 0.491
  SGI-Cog: Mean (SEM): 0.01 (0.36); p = 0.491
[3]; Week 12, 25 mg daily, 1-tailed p = 0.046
  SGI-Cog: Mean (SEM): 0.66 (0.39); p = 0.046
[4]; Week 1, 1 mg daily, SE 0.03, placebo −0.05
  CGI-SEVERITY: Adjusted Mean: −0.03
[4]; Week 1, 1 mg daily, one-sided 90% CI (−0.07, ∞), one-sided P 0.7588
  CGI-SEVERITY: Mean Difference ± SE between TC-5619 and Placebo (Placebo-TC5619): −0.02 ± 0.03
[4]; Week 4, 1 mg daily, SE 0.05, placebo −0.09
  CGI-SEVERITY: Adjusted Mean: −0.06
[4]; Week 4, 1 mg daily, one-sided 90% CI (−0.10, ∞), one-sided P 0.6737
  CGI-SEVERITY: Mean Difference ± SE between TC-5619 and Placebo (Placebo-TC5619): −0.02 ± 0.06
